Converted amounts (≈) assume the structure as drawn.
Tests used:
[1] = Liver microsome metabolic stability, human; format: in vitro ADME; details: human liver microsomes
Method: (§1) The liver microsome stability assay of eurycomanone was estimated using phase I and phase II enzymes in five types of microsomes (mice, rat, dog, monkey, and human). Eurycomanone at 1 mM (20 µL), microsomes at 0.3 mg/mL (20 µL), and 10 mg/mL of alamethicin in 1:1 DMSO and methanol (20 µL) were preincubated at 37 °C for 10 min. The cofactor, 5 mM UDPGA (20 µL), and 1 mM NADPH (20 µL) were added to make the final assay volume of 100 µL. At timepoints 0, 15, 30, 45, 60, and 90 min, […] of the reaction mixture is taken out and added to the stop solution. The supernatants (10,000 rpm, 10 min, 4 °C) were collected and analysed using LC-MS/MS. The standards used for mice and rat liver microsomes were propranolol and dasatinib. The standards used with the dog and monkey liver microsomes were propranolol and midazolam, while the standards used with the human liver microsomes were propranolol and terfinadine.

[2] = system: HepG2 cell-induced tumours; parameters: method as in earlier work; details: 17 mg/kg orally, nude mice with HepG2 cell-induced tumours; cited from earlier work
[3] = Plasma stability, dog; format: in vitro ADME; details: 5 µM, 37 °C, up to 4 h
Method: (§2) The plasma stability was estimated by preparing 5 µM of eurycomanone in 600 µL plasma in triplicates. The plasma stability of eurycomanone was determined in five types of plasma (mice, rat, dog, monkey, and human). The reaction was kept at 37 °C and ACN (100 µL) was added at timepoints 0, 30 min, and 1, 2, and 4 h to the reaction mixture (100 µL). The supernatant (10,000 rpm, 10 min, 4 °C) was collected and analysed by LC-MS/MS. The standards (propantheline bromide and enalapril) were analysed in triplicates.

[4] = Aqueous solubility; format: physicochemical; details: aqueous buffer, kinetic from dmso stock, room temperature, 2% DMSO
Method: The aqueous […] was estimated by adding 10 µL of eurycomanone stock solution (10 mM) to 490 µL of aqueous buffer at pH 5.4, pH 7.4 and DMSO in triplicates in deep-well plates. […] The plate was kept on a shaker (300 rpm) at room temperature for 16 h. The plate was then centrifuged at 25 °C, 4000 rpm for 25 min. The supernatant was transferred and analysed using LC-MS/MS.
Peak area 1 = peak area of the compound in 2% DMSO at the different pH levels.
Peak area 2 = peak area of the compound in 100% DMSO.

[5] = Liver microsome metabolic stability, rat; format: in vitro ADME; details: rat liver microsomes
Method: as §1

[6] = Caco-2 cell permeability assay; format: in vitro ADME; details: human
Method: The Caco-2 assay was carried out after seeding the cells onto the membrane to form a confluent monolayer in 21 days. The media is removed from apical (A) and basolateral (B) chambers and the membrane is washed with HBSS buffer. Eurycomanone (10 µM, 200 µL) was added to the A compartment (which represents the intestinal lumen), and buffer (300 µL) was added to the B compartment (representing the blood), and vice versa. The plate was kept in a shaking incubator (37 °C) for 1 h. The amount of eurycomanone that had permeated across the cells was measured by LC-MS/MS, and the apparent permeability (Papp) values and efflux ratio were calculated. The expression of P-glycoprotein (P-gp) by differentiated Caco-2 cells was confirmed by measuring the Papp value and efflux ratio of vinblastine with and without the presence of a competing P-gp substrate, cyclosporine A. Eurycomanone was also measured with the presence of cyclosporine A to investigate whether eurycomanone may be transported via P-gp transporters.

[7] = Plasma stability, rat; format: in vitro ADME; details: 5 µM, 37 °C, up to 4 h
Method: as §2

[8] = Plasma protein binding (rapid equilibrium dialysis), mice; format: in vitro ADME; details: mouse, pH 7.4, 37 °C, read-out: percentage bound to plasma protein (converted)
Method: (§3) The ability of eurycomanone to bind plasma protein was analysed in five types of plasma (mice, rat, dog, monkey, and human). Each type of plasma was spiked with eurycomanone (1 mM) to make the 10 µM test concentration of eurycomanone in the plasma. Equilibrium dialysis buffer (500 µL) at pH 7.4 was added to the right chamber in rapid equilibrium dialysis (RED), while the spiked plasma (300 µL) was added to the left chamber. The Teflon base plate was covered with aluminium foil and left on the shaking incubator at 37 °C for 4 h. The matrix was balanced by mixing 100 µL of the equilibrium buffer with the spiked plasma from the left chamber in RED before adding the stop solution (350 µL) to precipitate out the protein. The supernatant (10,000 rpm, 10 min, 4 °C) was collected and analysed using LC-MS/MS. The standards (propranolol, warfarin, and acebutalol) were analysed in duplicates.

[9] = system: plasma protein; experiment: Plasma protein binding (rapid equilibrium dialysis), rat; format: in vitro ADME; details: rat plasma, 10 µM, 37 °C, 4 h
Method: as §3

[10] = as above; format: in vitro ADME; details: rat, plasma, pH 7.4, rat plasma
Method: as §3

[11] = read-out: Intrinsic clearance (Clint)

**Q.** Which “Half-life (t1/2)” value [1] does the source give for C=C1[C@@H](O)[C@]2(O)OC[C@]34[C@H]2[C@@]2(C)[C@H](O)C(=O)C=C(C)[C@@H]2C[C@H]3OC(=O)[C@H](O)[C@@]14O [Eurycomanone] here?
**A.** >1.5 h

**Q.** What about the half-life at 200 µM [1] of the same molecule?
**A.** > 1.5 h

**Q.** What about the CLint scaled at 200 µM [1, 11] of the same molecule?
**A.** 52.4 mL/min/kg

**Q.** And the tumour suppression [2]?
**A.** tumour suppression ability was demonstrated

**Q.** What about the plasma stability [3] of the same molecule?
**A.** highly stable

**Q.** What about the solubility at 16 h ([4]; pH 5.4, 16 h) of the same molecule?
**A.** 206 µM (≈ 83.9 µg/mL)

**Q.** And the solubility at 16 h ([4]; pH 7.4, 16 h)?
**A.** 205 µM (≈ 83.9 µg/mL)

**Q.** And the “Half-life (t1/2)” value [5]?
**A.** >1.5 h

**Q.** What about the half-life at 200 µM [5] of the same molecule?
**A.** > 1.5 h

**Q.** And the CLint scaled at 200 µM [5, 11]?
**A.** 83.2 mL/min/kg

**Q.** And the Papp at 1 h, 10 µM ([6]; Caco-2, Caco-2, A to B)?
**A.** 0.45 ×10⁻⁶ cm/s

**Q.** What about the Papp at 1 h, 10 µM ([6]; Caco-2, Caco-2, B to A) of the same molecule?
**A.** 0.73 ×10⁻⁶ cm/s

**Q.** What about the efflux ratio at 1 h, 10 µM ([6]; Caco-2, Caco-2, read-out: Efflux Ratio) of the same molecule?
**A.** < 2

**Q.** What about the plasma stability [7] of the same molecule?
**A.** highly stable

**Q.** What about the fraction unbound at 4 h, 10 µM [8] of the same molecule?
**A.** 0.784

**Q.** What about the “percentage bound to plasma protein” value [9] of the same molecule?
**A.** 30%

**Q.** And the fraction unbound at 4 h, 10 µM ([10]; 10 µM, 37 °C, 4 h, read-out: percentage bound to plasma protein (converted))?
**A.** 0.699

**Q.** And the fraction unbound at 4 h, 10 µM ([10]; read-out: unbound fraction)?
**A.** 0.7
